Test results as given in ChEMBL document CHEMBL4052803, “Synthesis and anti-tumor evaluation of panaxadiol halogen-derivatives” (Bioorg Med Chem Lett, 2017).

Columns and labels:
SW480 = assay: Antiproliferative activity against human SW480 cells after 48 hrs by MTT assay; assay type: functional, cell-based; settings: SW480, 48 h
[1] = Antiproliferative activity against HHDPC cells after 48 hrs by MTT assay; assay type: cell-based; settings: Homo sapiens
BGC-823 = assay: Antiproliferative activity against human BGC823 cells after 48 hrs by MTT assay; assay type: functional, cell-based; settings: BGC-823, 48 h
HCT-116 = assay: Antiproliferative activity against human HCT116 cells after 48 hrs by MTT assay; assay type: functional, cell-based; settings: HCT-116, 48 h
GES1 = assay: Antiproliferative activity against human GES-1 cells after 48 hrs by MTT assay; assay type: cell-based; settings: GES1, 48 h
H9c2 = assay: Antiproliferative activity against rat H9c2 cells after 48 hrs by MTT assay; assay type: cell-based; settings: H9c2, 48 h

| SMILES | IC50 (SW480) [µM] | IC50 [1] [µM] | IC50 (BGC-823) [µM] | IC50 (HCT-116) [µM] | IC50 (GES1) [µM] | IC50 (H9c2) [µM] |
| --- | --- | --- | --- | --- | --- | --- |
| CC1(C)CCC[C@@](C)([C@H]2CC[C@]3(C)[C@@H]2[C@H](O)C[C@@H]2[C@@]4(C)CC[C@H](O)C(C)(C)[C@@H]4CC[C@]23C)O1 | 73.4 | 141 | 80.1 | > 100 | 116 | 214 |
| CC(C)(CCC[C@@]1(C)O[C@@H]2C[C@@H]3[C@@]4(C)CC[C@H](OC(=O)CCl)C(C)(C)[C@@H]4CC[C@@]3(C)[C@]3(C)CC[C@H]1[C@@H]23)OC(=O)CCl | 30.4 | 100 | > 100 | 42.3 | 125 | 281 |
| C/C(=C\CCC(C)(C)O)[C@H]1CC[C@]2(C)[C@@H]1[C@H](OC(=O)CBr)C[C@@H]1[C@@]3(C)CC[C@H](O)C(C)(C)[C@@H]3CC[C@]12C | 0.118 | 36.4 | 0.622 | 5.34 | 26.1 | 48.8 |
| CC(C)=CC/C=C(\C)[C@H]1CC[C@]2(C)C1=CC[C@@H]1[C@@]3(C)CC[C@H](OC(=O)CBr)C(C)(C)[C@@H]3CC[C@]12C | 39.4 | 90.6 | – | 3.59 | 77.6 | 131 |
| CC(C)=CC/C=C(\C)[C@H]1CC[C@]2(C)[C@@H]1[C@H](Br)C[C@@H]1[C@@]3(C)CC[C@H](OC(=O)CBr)C(C)(C)[C@@H]3CC[C@]12C | 18 | 157 | 95 | 58.1 | 121 | 250 |
| CC1(C)CCC[C@](C)([C@H]2CC[C@]3(C)[C@@H]2[C@H](OC(=O)CBr)C[C@@H]2[C@@]4(C)CC[C@H](OC(=O)CBr)C(C)(C)[C@@H]4CC[C@]23C)O1 | 15.2 | 140 | 15.6 | 3.86 | 99.4 | 158 |
| CC(C)=CC/C=C(\C)[C@H]1CC[C@]2(C)[C@@H]1[C@H](OC(=O)CCl)C[C@@H]1[C@@]3(C)CC[C@H](OC(=O)CCl)C(C)(C)[C@@H]3CC[C@]12C | 13.7 | 89.5 | > 100 | 12.6 | 100 | 180 |
| CC1(C)CCC[C@](C)([C@H]2CC[C@]3(C)[C@@H]2[C@H](OC(=O)CCl)C[C@@H]2[C@@]4(C)CC[C@H](OC(=O)CCl)C(C)(C)[C@@H]4CC[C@]23C)O1 | > 100 | 226 | > 100 | > 100 | 180 | > 500 |
| C/C(=C\CCC(C)(C)O)[C@H]1CC[C@]2(C)[C@@H]1[C@H](OC(=O)CBr)C[C@@H]1[C@@]3(C)CC[C@H](OC(=O)CBr)C(C)(C)[C@@H]3CC[C@]12C | 1.22 | 42.1 | 1.08 | 50.9 | 35.1 | 36.6 |
| C/C(=C\CCC(C)(C)OC(=O)CBr)[C@H]1CC[C@]2(C)C1=CC[C@@H]1[C@@]3(C)CC[C@H](OC(=O)CBr)C(C)(C)[C@@H]3CC[C@]12C | 31.4 | 200 | 82.1 | 7.14 | 142 | 161 |
| C/C(=C\CCC(C)(C)O)[C@H]1CC[C@]2(C)[C@@H]1[C@H](OC(=O)CCl)C[C@@H]1[C@@]3(C)CC[C@H](OC(=O)CCl)C(C)(C)[C@@H]3CC[C@]12C | 5.49 | 61.9 | 4.28 | 8.33 | 110 | 86.2 |
| CC1(C)CCC[C@@](C)([C@H]2CC[C@]3(C)[C@@H]2[C@H](O)C[C@@H]2[C@@]4(C)CC[C@H](OC(=O)CBr)C(C)(C)[C@@H]4CC[C@]23C)O1 | 14.2 | 118 | 14.7 | – | 115 | 120 |
| CC1(C)CCC[C@@](C)([C@H]2CC[C@]3(C)[C@@H]2[C@H](O)C[C@@H]2[C@@]4(C)CC[C@H](OC(=O)CCl)C(C)(C)[C@@H]4CC[C@]23C)O1 | 15.8 | 120 | 17.1 | 42.3 | 107 | 121 |
